2 compounds from patent US10654896B2, “FoxP3-binding peptides and uses thereof” (FUNDACIÓN PARA LA INVESTIGACIÓN MÉDICA APLICADA, priority 2016, dated 2020) can be followed below.

Series [1] in a line: Human liver microsomal stability. To be noted: human liver microsomes; for remaining at 20 min, 1 μM: read-out: % Remaining after 20 min; for remaining at 1 h, 1 μM: 60 min, read-out: % Remaining after 60 min; for half-life: peptide 1 μM, read-out: t1/2. The series is classed as in vitro ADME. On the procedure: (§1) The data collected were analyzed to calculate a half-life (t1/2, min) for tested peptides at a final concentration of 1 μM. Briefly, 5 μL of stock solution of tested peptide (10 mM) were diluted in 495 μL of 1:1 Methanol/Water (final concentration of 100 μM, 50% MeOH). Then, 50 μL of this intermediate solution were diluted in 450 μL of 100 mM potassium phosphate buffer to a concentration of 10 μM (working solution, 5% MeOH). The NADPH regenerating system contains β-Nicotinamide adenine dinucleotide phosphate (Sigma, Cat. # N0505), Isocitric acid (Sigma, Cat. #11252) and Isocitric dehydrogenase (Sigma, Cat. #12002) at a final concentration of 1 unit/mL at incubation.
(§2) Human liver microsomes were obtained from BD Gentest (Cat. #452117) and mouse liver microsomes from Xenotech (Cat. # M1000), to a final concentration of 0.7 mg protein/mL. A volume of 10 μL of peptide solution and 80 μL of microsome solution were added to a 96-well plate and incubated for 10 min at 37° C. The reaction was started by the addition of 10 μL of NADPH regenerating system and stopped by the addition of 300 μL of stop solution (ACN at 4° C., including 100 ng/mL Tolbutamide and 100 ng/mL of Labetalol as internal standard) at different incubation times (0, 5, 10, 20, 30 and 60 min). Concentrations of test compound were quantified by LC-MS/MS methodologies (Shimadzu LC 20-AD/API4000) using peak area ratio of analyte/internal standard and the percent loss of parent compound was calculated under each time point to determine the half-life.
Background: Microsomes from liver hold many membrane-bound enzymes, among them those of drug oxidation.

The nature of series [2]: Mouse liver microsomal stability. Type of series: in vitro ADME. To be noted: mouse liver microsomes; for remaining at 20 min, 1 μM: read-out: % Remaining after 20 min; for remaining at 1 h, 1 μM: 60 min, read-out: % Remaining after 60 min; for half-life: peptide 1 μM. The protocol:
as §1, §2

SMILES strings stand for the structures. Where a SMILES comes first, the peptide text is derived from it. [ ]: non-standard residue; d: D form.

Broadly, the amount remaining is what is left of the initial amount, in per cent. In the case of `CSCC[C@H](NC(=O)[C@H](C)NC(=O)[C@H](Cc1ccccc1)NC(=O)[C@H](Cc1ccccc1)NC(=O)[C@@H]1CCCN1C(=O)[C@H](Cc1c[nH]c2ccccc12)NC(=O)[C@H](CCSC)NC(=O)[C@H](CCCCN)NC(=O)[C@H](CCCNC(=N)N)NC(=O)[C@H](Cc1ccccc1)NC(=O)[C@H](CO)NC(=O)[C@H](CCC(N)=O)NC(=O)[C@H](Cc1ccccc1)NC(=O)[C@@H](CC(=O)O)NC(=O)[C@@H](N)CCCNC(=N)N)C(=O)O` [compound 3] (H-R[dD]FQSFRKMWPFFAM-OH), in series [1], the amount remaining at 20 min, 1 μM stood at 0%; the share remaining at 1 h, 1 μM stood at 0%; the half-life was below 2.5 min. In series [2], the amount remaining at 20 min, 1 μM was found to be 0%; the fraction remaining at 1 h, 1 μM amounted to 0%; the half-life was below 2.5 min.

Take `CSCC[C@@H]1NC(=O)[C@H](C)NC(=O)[C@H](Cc2ccccc2)NC(=O)[C@H](Cc2ccccc2)NC(=O)[C@@H]2CCCN2C(=O)[C@H](Cc2c[nH]c3ccccc23)NC(=O)[C@H](CCSC)NC(=O)[C@H](CCCCN)NC(=O)[C@H](CCCNC(=N)N)NC(=O)[C@H](Cc2ccccc2)NC(=O)[C@H](C)NC(=O)[C@H](CCC(N)=O)NC(=O)[C@H](Cc2ccccc2)NC(=O)[C@H](C)NC(=O)[C@H](CCCNC(=N)N)NC1=O` [compound 50] (cyclo(RAFQAFRKMWPFFAM)): in series [1], the share remaining at 20 min, 1 μM is 6.2%; the amount remaining at 1 h, 1 μM came to 0%; the half-life turned out to be 5.3 min. In series [2], the share remaining at 20 min, 1 μM came to 12%; the share remaining at 1 h, 1 μM worked out at 0%; the half-life turned out to be 8 min.
